One compound from patent US5783597A, “2,5-disubstituted thiophenes: inhibitors of 5-lipoxygenase and inducible cyclooxygenase (COX-2) enzymes, composition and use” (Ortho Pharmaceutical Corporation, priority 1997, dated 1998) can be followed below.

By IC50 is commonly meant the concentration that gives 50% inhibition.

In test [1] the target is T1, 5-lipoxygenase (5-LO) (Rattus norvegicus, UniProt P12527).
T1 construct: endogenous in cells; host or cells: intact RBL-1 (rat basophilic leukemia) cells, stimulated with calcium ionophore A23187
T1 sequence (P12527 1-673): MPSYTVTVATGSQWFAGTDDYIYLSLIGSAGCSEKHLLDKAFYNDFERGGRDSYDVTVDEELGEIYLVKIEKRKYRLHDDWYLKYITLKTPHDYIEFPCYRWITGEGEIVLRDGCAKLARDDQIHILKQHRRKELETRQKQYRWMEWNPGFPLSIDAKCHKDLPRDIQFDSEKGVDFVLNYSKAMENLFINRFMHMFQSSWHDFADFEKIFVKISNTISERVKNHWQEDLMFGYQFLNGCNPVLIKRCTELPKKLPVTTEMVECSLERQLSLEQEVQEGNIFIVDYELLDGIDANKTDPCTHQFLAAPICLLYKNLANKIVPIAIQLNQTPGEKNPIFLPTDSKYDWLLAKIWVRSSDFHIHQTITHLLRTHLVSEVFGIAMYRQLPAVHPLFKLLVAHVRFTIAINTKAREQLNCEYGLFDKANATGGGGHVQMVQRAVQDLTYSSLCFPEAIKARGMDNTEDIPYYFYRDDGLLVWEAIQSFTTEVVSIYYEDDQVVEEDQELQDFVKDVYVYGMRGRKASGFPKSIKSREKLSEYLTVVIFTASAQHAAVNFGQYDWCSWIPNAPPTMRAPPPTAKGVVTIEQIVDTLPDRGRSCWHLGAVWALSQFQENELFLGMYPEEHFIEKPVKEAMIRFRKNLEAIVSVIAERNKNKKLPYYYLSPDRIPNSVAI
The experiment in a line: RBL-1 cell 5-lipoxygenase and cyclooxygenase - Homogenate (Procedure I). To be noted: RBL-1 homogenate supernatant, 5-HETE; read-out: Procedure I (5-LO) Homog. IC50. It counts as biochemical. The procedure:
RBL-1 cell 5-lipoxygenase and cyclooxugenase - Homogenate
Rat basophilic leukemia cells (RBL-1; 5×10^7 viable cells/mL) were disrupted by homogenization on ice (four 20 sec bursts) with a Brinkman polytron. […] The homogenate was then centrifuged at 9,220×g for 48 minutes at 4° C. The pellet was discarded and the supernatant was saved as the source of enzymes. The supernatant was pre-incubated for five minutes at 37° C. in the presence of 2 mM of CaCl2 and compound or vehicle (1% DMSO). The conversion of AA into products by CO and LO was initiated by adding 10 μL (50 μCi) of 1-^14 C-AA to each tube and incubated at 37° C. for 20 minutes. The reaction was stopped by adjusting the pH of each sample to 3 to 3.5 with 2M formic acid. Samples were extracted with three volumes of chloroform to isolate the products of 5-LO formed during the reaction. Fractions were dried under nitrogen, then resuspended in 40 μL of chloroform and spotted onto silica gel HL plates. The plates were developed in A-9 solvent. The dried plates were analyzed using a Bioscan Imaging TLC scanner to determine the percentage of radiolabelled M converted to 5-HETE (LO product) and PGD2 (CO product) in each sample.

The target in test [2] is T2, Human Prostaglandin H2 Synthase Typ II (Cox-2) (Homo sapiens, UniProt P35354).
T2 construct: endogenous in cells; host or cells: ECV-304 cells treated with PMA and ionomycin for 16 hours
T2 sequence (P35354 18-604): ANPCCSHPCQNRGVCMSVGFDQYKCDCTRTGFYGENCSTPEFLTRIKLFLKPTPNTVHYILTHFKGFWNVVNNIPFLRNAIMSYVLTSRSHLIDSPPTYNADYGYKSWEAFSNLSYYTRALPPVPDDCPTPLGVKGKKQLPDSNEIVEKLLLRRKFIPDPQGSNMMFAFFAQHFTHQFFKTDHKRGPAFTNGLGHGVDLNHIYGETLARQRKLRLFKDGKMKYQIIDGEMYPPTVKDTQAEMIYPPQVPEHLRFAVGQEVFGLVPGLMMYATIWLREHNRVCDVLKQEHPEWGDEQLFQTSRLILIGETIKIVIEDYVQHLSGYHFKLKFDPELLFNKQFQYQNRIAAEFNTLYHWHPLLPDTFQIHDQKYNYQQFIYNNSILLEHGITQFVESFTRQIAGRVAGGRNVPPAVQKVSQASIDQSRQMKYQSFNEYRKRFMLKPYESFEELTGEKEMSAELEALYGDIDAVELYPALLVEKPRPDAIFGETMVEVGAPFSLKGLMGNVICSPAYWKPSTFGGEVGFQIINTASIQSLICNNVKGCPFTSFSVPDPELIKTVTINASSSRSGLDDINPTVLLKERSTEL
Put plainly: Human Prostaglandin H2 Synthase Typ II (Cox-2) Whole Cell Assay, ECV-304 cells (Procedure III). To be noted: ECV-304 whole cells, PGE2 produced; read-out: Procedure III (COX-2) Wh Cell IC50. Format: cell-based. The procedure:
Human Prostaglandin H2 Synthase Typ II (Cox-2) Whole Cell Assay (Multiple Concentrations)
ECV-304 (human, endothelial, umbilical cord) cells are maintained in culture in a suitable medium, and are trypsinized and plated at a density of 1×10^6 cells per well of a 6 well plate prior to assay. Approximately 28 hours later, 50 μg/ml PMA and […] ionomycin (both final concentrations) are added to each well and incubated for an additional 16 hours. Vehicle or test compounds are incubated with the cells for five minutes prior to initiation of Cox-2 enzyme activity by the addition of 30 μM arachidonic acid. Ten minutes later, an aliquot of the supernatant is withdrawn and the amount of PGE2 present quantitated by radioimmunoassay. Activity, reported as percent inhibition of PGE2 produced, is calculated as follows: […]

For test [3], the target named is T1, 5-lipoxygenase (5-LO). The experiment in a line: RBL-1 cell 5-lipoxygenase and cyclooxygenase - Whole cells (Procedure II). To be noted: intact RBL-1 cells, 5-HETE; read-out: Procedure II (5-LO) Wh Cell IC50. Format: cell-based. The procedure:
RBL-1 Cell 5-Lipoxygenase and cyclooxygenase - Whole cells
The ability to inhibit 5-LO and CO in intact RBL-1 cells was also evaluated. […] Cells were collected by centrifugation, washed once in HBSS, and resuspended at a concentration of 1×10^5 cells/mL. Cells were incubated in the presence of vehicle or drug then centrifuged at 800×g for 10 minutes at 4° C. The supernatant was removed by aspiration and the cells were resuspended in 0.5 mL of HBSS. […] The conversion of M to 5-LO products was initiated by the addition of 10 μL (50 uCi) of 1-^14 C-AA. Products were isolated by acidification and extraction, followed by thin layer chromatography analysis as described above. Radioactive areas corresponding to authentic 5-LO (5-HETE) and CO (PGD2) products were quantitated by the Bioscan 2000 Imaging System.

For the compound `CS(=O)(=O)Nc1ccc(Oc2ccc(F)cc2)s1` [Example 1], the results for the IC50 in test [1], in test [2] and in test [3] were 130 nM, 1810 nM and 460 nM, respectively.
